In test [1] the test system is HeLa cells (mitotic spindles, β-tubulin/DAPI). Nature of the test: Immunofluorescence analysis of mitotic spindles and chromosomes. Type of test: cell-based, human. Conditions: 6 h, Compound 1 2.5 μM, CQ 15 or 25 μM. On the procedure:
HeLa cells, treated with Compound 1 (a131) at 2.5 μM (FIG. 3b), chloroquine (CQ) at 15 μM (FIG. 3c) or 25 μM (FIG. 3d), or DMSO (FIG. 3a) for 6 h, were fixed in methanol and subjected to immunofluorescence analysis using antibodies against β-tubulin to visualize proper formation of mitotic spindles. The condensed mitotic chromosomes were visualized by counterstaining with DAPI. Only Compound 1 (a131)-treated HeLa cells arrested in mitosis with misaligned chromosomes and disorganized spindles (FIG. 3b). The bars in FIGS. 3a-d represent 5 μm in length.
To confirm the inhibitory mitotic progression ability, HeLa cervical cancer cells as cultured above were treated with Compound 1 (2.5 μM, DMSO), CQ (15 or 25 μM, DMSO) or DMSO for 6 h. The treated cells were fixed in methanol and subjected to immunofluorescence analysis using antibodies against β-tubulin (Abcam, Cat#ab52623) to visualize proper formation of mitotic spindles. The condensed mitotic chromosomes were visualized by counterstaining with DAPI.

Test [2] deals with HCT-15 human colon adenocarcinoma xenografts. Nature of the test: Tumour xenograft efficacy, tumour volume. The format is in vivo, mice. The note with it: HCT15 xenografts; intravenously 40 mg/kg, 3 times every 4 days; vs vehicle. On the procedure: A, B: is a graphical representation of tumour volumes estimated periodically as indicated. Mice bearing established tumour xenografts using HCT15 or MDA-MB-231 cells were treated orally (PO) or intraperitoneally (IP) twice a day with the indicated doses of Compound 1 or Compound 16 for 12 or 15 days. Paclitaxel (PTX) was given intravenously at dose of 40 mg/kg, 3 times every 4 days. Error bars show ±S.D. from mean tumour volumes obtained from 6 mice. Student's t-test was performed to determine the statistical significance (*=p<0.005). C: is a bar graph showing quantification of cells (n>100 per condition) with misaligned chromosomes and multipolar mitotic-spindles. […] tumour sections treated with Compound 16 (80 mg/kg) or control vehicle for 12 days were stained with anti-β-tubulin antibodies and DAPI. The percentage of cells with misaligned chromosomes and multipolar mitotic-spindles was quantified and plotted with mean values±S.D.
Mice bearing established tumor xenografts using HCT15 or MDA-MB-231 cells were treated orally (PO) or intraperitoneally (IP) twice a day with the indicated doses of Compound 1 or its derivative Compound 16 (b5) for 12 or 15 days, respectively. For comparison, paclitaxel (PTX) was given intravenously to mice bearing established tumour xenografts using HCT15 at dose of 40 mg/kg, 3 times every 4 days.

The test system of test [3] is non-transformed normal and oncogene-transformed human fibroblast BJ cell lines. Nature of the test: Chemoprotection from paclitaxel, Annexin V/PI FACS. Type of test: cell-based. The note with it: paclitaxel treatment alone, 50 nM. Here is the method: Normal and transformed BJ cells were treated with Compound 25 at 5 μM. 48 h after treatment, cells were further treated with (A) 50 nM paclitaxel (PTX) or (B) etoposide, at the concentrations shown, for additional 48 or 72 h, respectively. A: cells were collected, stained with Annexin V together with propidium iodide (PI) and subjected to FACS analysis. […] Student's t-test was performed to determine the statistical significance (***=P<0.0001, **=P<0.001, *=P<0.05, n.s.=no significance).
The chemoprotective efficacies of the Compounds in Group 2 were further evaluated by measuring their ability to protect non-transformed normal cells, but not cancer and oncogene-transformed counterparts, from the most well-known as well as clinically-relevant chemotherapeutic agents, paclitaxel and etoposide. To determine this, isogenic non-transformed normal and oncogene-transformed human fibroblast BJ cell lines, cultured in DMEM supplemented with 10% FBS, were pre-treated with Compound 25 (a166—Group 2) at 5 μM. 48 h after treatment, cells were further treated with paclitaxel (PTX; FIG. 13A) or etoposide (FIG. 13B) for an additional 72 h. […] For etoposide, cell viability was determined using MTT assay and plotted in comparison with DMSO control vehicle with mean values±S.D. (n=4).

Data on two compounds can be found in patent US10308631B2, “Selective anti-cancer compounds” (NATIONAL UNIVERSITY OF SINGAPORE, priority 2015, dated 2019).

With `CCN(CC)CCCC(C)Nc1ccnc2cc(Cl)ccc12` (stereo not drawn) [CQ, chloroquine, reference compound], the “mitotic arrest, chromosome alignment and mitotic spindles” value in test [1] is listed as “no such effects were seen”.

Regarding `CC(=O)O[C@H]1C(=O)[C@@]2(C)[C@H]([C@H](OC(=O)c3ccccc3)[C@]3(O)C[C@H](OC(=O)[C@H](O)[C@@H](NC(=O)c4ccccc4)c4ccccc4)C(C)=C1C3(C)C)[C@]1(OC(C)=O)CO[C@@H]1C[C@@H]2O` [paclitaxel, reference compound], in test [2], the “anti-tumour effect (tumour volume)” value is “did not show significant anti-tumour effects”. The “selectivity of cell death for oncogene-transformed BJ cells” value in test [3] was “showed a minimal selectivity for oncogene-transformed BJ cells”.
